Laboratory results published in patent US8211445B2, “PSM peptides as vaccine targets against methicillin-resistant Staphylococcus” (The United States of America, as represented by the …, priority 2007, dated 2012).

Columns and labels:
human neutrophils [1] = assay: Lysis of human neutrophils (release of lactate dehydrogenase); assay type: cell-based; settings: synthetic PSM peptides at 10 μg/ml, LDH release (FIG. 4A)
Procedure: (§1) Lysis of PMNs by synthetic PSMs or clarified S. aureus culture media was determined essentially as described (Voyich et al., J Infect Dis 194, 1761-70, 2006; Voyich et al., J Immunol 175, 3907-19, 2005). Synthetic PSMs (1 or 10 μg/ml) were added to wells of a 96-well tissue culture plate containing 10^6 PMNs and plates were incubated at 37° C. for up to 3 hours. At the desired times, PMN lysis was determined by release of lactate dehydrogenase (LDH; Cytotoxicity Detection Kit, Roche Applied Sciences). Alternatively, wild-type and isogenic mutant S. aureus strains were cultured for 18 hours at 37° C. in 50 ml TSB with shaking using a 100 ml flask. Bacteria were removed by centrifugation and culture media were sterilized by filtration and stored at −80° C. in aliquots until used. Culture medium was diluted 1:10 in RPMI/H, mixed with human PMNs (10^6) and tested for its ability to cause PMN lysis.
as §1, with “above in Example 2.” for “(Voyich et al., J Infect Dis 194, 1761-70, 2006; Voyich et al., J Immunol 175, 3907-19, 2005).”
Human neutrophil assays: Human neutrophil isolation, chemotaxis, calcium ion flux, priming, lysis assays, and measurement of IL-8 production were performed as described in Example 2.

human neutrophils [2] = assay: Scanning electron microscopy of neutrophils exposed to PSMα3; assay type: cell-based; settings: PSMα3 10 μg/ml
Procedure: FIG. 4 includes several panels showing PSM-induced lysis of human neutrophils. FIG. 4A is a graph showing human neutrophil lysis, measured by release of lactate dehydrogenase (LDH) activity, with synthetic PSM peptides at 10 μg/ml. FIG. 4B is a graph showing human neutrophil lysis, measured by release of LDH activity, with culture filtrates of wild-type, PSM gene deletion and complemented CA- and HA-MRSA strains. Data represent means±SEM of at least three independent measurements. FIG. 4C is a series of digital images showing in vitro lysis of human neutrophils with synthetic PSMα3. Neutrophils were incubated with PSMα3 (10 μg/ml) and observed by scanning electron microscopy at the time intervals indicated, in comparison to untreated controls. […] The peak at ˜190 nm is indicative of α-helicity. […] FIG. 4F is a pair of graphs showing the infiltration and killing of […] leukocytes in a murine peritonitis model. Two hours after infection with the bacteria, neutrophils and monocytes were counted in peritoneal exudates, and dead and live cells were distinguished, using flow cytometry. The number of mice was n=5 for all samples except n=4 for MW2 samples (the results from one mouse in the MW2 wild-type and PSMα deletion strain samples were not included because of extensive bleeding). […]

[3] = Immunization of mice with synthetic PSM peptides, PSM-specific antibodies by ELISA; assay type: in vivo, mice (BALB/c); settings: 50 μg s.c. with CFA, booster with IFA
Procedure: In order to determine the immunogenicity of synthetic PSM peptides, mice (BALB/c, female, 6-8 weeks) were injected subcutaneously with 50 μg (100 μL) of each PSM peptide in sterile PBS emulsified with complete Freund's adjuvant (CFA) for primary immunization. A booster injection containing incomplete Freund's adjuvant (IFA) instead of CFA was given to the animals 14 days after the primary immunization. The control group of animals received injections of sterile PBS and adjuvants only. Three blood withdrawals were performed on each mouse. The first two blood samples were collected via retro-orbital route immediately before primary injection and before booster injection, respectively. All animals were sacrificed 21 days after booster injection for the terminal blood samples.
PSM-specific antibodies in mouse serum were determined by ELISA assays. Microtiter plates (Nunc 96-well flat-bottom MaxiSorp plates) were coated with 20 μg/ml of each synthetic PSM peptides in PBS plus 0.05% NaN3, and incubated overnight at 4° C. The plates were washed with PBS containing 0.05% Tween-20, and blocked for 1 hour at room temperature with 1% BSA (Sigma) and 0.05% NaN3 in PBS. Serum samples were diluted in assay diluent (Tris-buffered saline containing 0.1% BSA and 0.05% Tween-20, pH 7.2), and added to the washed wells at 100 μl/well for an incubation of 2 hours at room temperature. Plates were washed again and HRP-labeled goat anti-mouse IgG (R&D Systems) and goat anti-mouse IgM (Jackson ImmunoResearch Laboratory) were diluted in assay diluent and added to the plates at 100 μl/well for an incubation of 1 hour at room temperature in order to detect PSM specific mouse IgG and IgM, respectively. Plates were washed again and a substrate solution containing equal volume of Tetramethylbenzidine and H2O2 was added to the plates at 100 μl/well for color development. The reaction was terminated by adding 50 μl of 1 M H2SO4 to each well, and optical density (O.D.) was measured at 450 nm using an ELISA plate reader.

## fMEFVAKLFKFFKDLLGKFLGNN [PSMα3]
Human neutrophils [1]
  lysis of human neutrophils in vitro: significant lysis
Human neutrophils [2]
  state of neutrophils after 60 minutes: many neutrophils were completely destroyed
  time of exposure until signs of priming and compromised integrity of the plasma membrane: ≤ 5 min
[3]; N-formylated synthetic PSM peptides, BALB/c mice (FIG. 11)
  specific antibody production in vivo: most robust antibody production
[3]; non N-formylated synthetic PSM peptides, BALB/c mice (FIG. 12)
  specific antibody production in vivo: strongest response
